According to US4778790A, “Perhydrothiazepine and perhydroazepine derivatives and their therapeutic use” (Sankyo Company Limited, priority 1986, dated 1988):
pIC50: −log10 of the molar value. Structures can show the parent of a compound that is named as a salt.

The compounds below were run against T1, ACE extracted from rabbit lungs (Oryctolagus cuniculus, UniProt P12822) (assay: in vitro ACE inhibition (hippurylhistidylleucine substrate, procedure of Cushman et al.)). Settings: rabbit lung ACE, borate buffer with NaCl, pH 8.3, 37° C., 30 minutes, read-out: IC50 (concentration required to inhibit the activity of ACE by 50% in vitro).
T1 construct: ACE extracted from rabbit lungs; from tissue; host or cells: rabbit lung
T1 sequence (P12822 34-1310): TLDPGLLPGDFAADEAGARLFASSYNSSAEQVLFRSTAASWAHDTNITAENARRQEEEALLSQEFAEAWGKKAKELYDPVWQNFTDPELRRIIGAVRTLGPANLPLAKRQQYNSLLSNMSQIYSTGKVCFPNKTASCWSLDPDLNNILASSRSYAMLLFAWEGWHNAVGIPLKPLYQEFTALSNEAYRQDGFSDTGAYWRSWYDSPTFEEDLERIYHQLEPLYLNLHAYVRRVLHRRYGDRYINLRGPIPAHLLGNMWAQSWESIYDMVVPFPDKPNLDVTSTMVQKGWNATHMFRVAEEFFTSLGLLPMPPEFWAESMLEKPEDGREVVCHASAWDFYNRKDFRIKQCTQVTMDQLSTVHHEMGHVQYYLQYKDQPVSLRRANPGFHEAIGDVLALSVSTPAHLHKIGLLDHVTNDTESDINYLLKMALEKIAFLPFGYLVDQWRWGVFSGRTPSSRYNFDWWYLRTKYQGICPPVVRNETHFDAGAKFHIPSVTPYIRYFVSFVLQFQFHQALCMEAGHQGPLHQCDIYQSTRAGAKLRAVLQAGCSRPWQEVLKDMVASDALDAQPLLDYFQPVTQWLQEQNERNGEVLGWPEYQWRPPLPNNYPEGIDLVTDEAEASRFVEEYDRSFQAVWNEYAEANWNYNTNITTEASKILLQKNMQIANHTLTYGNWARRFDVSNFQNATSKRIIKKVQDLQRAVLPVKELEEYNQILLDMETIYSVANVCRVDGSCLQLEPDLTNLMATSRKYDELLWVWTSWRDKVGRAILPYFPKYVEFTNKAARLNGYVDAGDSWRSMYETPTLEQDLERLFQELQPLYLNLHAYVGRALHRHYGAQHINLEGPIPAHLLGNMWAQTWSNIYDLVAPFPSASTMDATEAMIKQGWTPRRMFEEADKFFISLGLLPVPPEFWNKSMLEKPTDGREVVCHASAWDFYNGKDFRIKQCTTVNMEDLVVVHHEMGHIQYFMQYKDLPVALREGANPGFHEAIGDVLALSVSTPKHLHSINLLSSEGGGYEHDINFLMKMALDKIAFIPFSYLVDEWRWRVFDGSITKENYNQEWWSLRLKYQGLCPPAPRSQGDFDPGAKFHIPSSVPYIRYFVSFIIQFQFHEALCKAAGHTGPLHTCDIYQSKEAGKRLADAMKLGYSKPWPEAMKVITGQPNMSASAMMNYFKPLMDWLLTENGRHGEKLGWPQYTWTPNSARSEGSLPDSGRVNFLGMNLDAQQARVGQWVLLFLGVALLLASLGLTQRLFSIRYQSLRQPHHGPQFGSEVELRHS
Type: biochemical
From the text: As noted above, the compounds of the present invention have the ability to inhibit the activity of ACE, the enzyme which converts angiotensin I to angiotensin II and also inactivates bradykinin. The physiological activity of the compounds of the invention can be evaluated by determining the concentration of the test compound required to inhibit the activity of ACE by 50% in vitro (IC50), for example by the procedure of D. W. Cushman et al. [Biochemical Pharmacology, 20, 1637 (1971)]. Specifically, solutions of ACE extracted from rabbit lungs and, as substrate, hippurylhistidylleucine, to which had been added the test compound at various concentrations, were added to a borate buffer solution containing sodium chloride, and the pH was adjusted to a value of 8.3. The enzymatic reaction was allowed to proceed at 37° C. for 30 minutes, after which time the reaction was terminated by adding 1N aqueous hydrochloric acid. […] The residual hippuric acid was dissolved in water. The amount of hippuric acid in the resulting aqueous solution was determined by the absorbency to ultraviolet radiation at 228 nm. The resulting values were then plotted to form a curve indicating the relationship between the amount of hippuric acid formed and the concentration of the test compound. The IC50 value can be obtained by reading on this curve the concentration of the test compound which reduces the amount of hippuric acid formed to one half of that formed when no test compound is present.

| Compound | pIC50 |
| --- | --- |
| NCCCCCCCC(NC1CCC(c2ccccc2)CN(CC(=O)O)C1=O)C(=O)O [E, rel-α-{3(S)-[8-Amino-1(S)-carboxyoctylamino]-2-oxo-6(R)-phenylperhydrozepin-1-yl}acetic acid] | 8.39 |
| O=C(O)CN1C[C@@H](c2ccccc2)CC[C@H](N[C@@H](CCCCC2CCNCC2)C(=O)O)C1=O (relative stereo) [G, rel-α-{3(S)-[1(S)-Carboxy-5-(4-piperidyl)pentylamino]-2-oxo-6(R)-phenylperhydroazepin-1-yl}acetic acid] | 8.43 |
| NCCCCCCC(NC1CSC(c2ccccc2)CN(CC(=O)O)C1=O)C(=O)O [C, rel-α-}6(R)-[7-Amino-1(S)-carboxyheptylamino]-5-oxo-2(R)-phenylperhydro-1,4-thiazepin-4-yl}acetic acid] | 8.51 |

The remaining lines, values ahead:

| pIC50 | Compound |
| --- | --- |
| 8.80 | NCCCCCCC[C@H](N[C@H]1CS[C@H](c2cccs2)CN(CC(=O)O)C1=O)C(=O)O [D] |
| 8.70 | NCCCCCC[C@H](N[C@H]1CS[C@H](c2cccs2)CN(CC(=O)O)C1=O)C(=O)O [B, α-{6(R)-[7-Amino-1(S)-carboxyheptylamino]-5-oxo-2(S)-(2-thienyl)perhydro-1,4-thiazepin-4-yl}acetic acid] |
| 8.48 | NCCCC[C@H](N[C@H]1CS[C@H](c2cccs2)CN(CC(=O)O)C1=O)C(=O)O [A, α-{6(R)-[5-Amino-1(S)-carboxypentylamino]-5-oxo-2(S)-(2-thienyl)perhydro-1,4-thiazepin-4-yl}acetic acid dihydrochloride] |
| 8.80 | O=C(O)CN1C[C@@H](c2cccs2)SC[C@H](N[C@@H](CCCCC2CCNCC2)C(=O)O)C1=O [F, α-{6(R)-[1(S)-Carboxy-5-(4-piperidyl)pentylamino]-5-oxo-2(S)-(2-thienyl)perhydro-1,4-thiazepin-4-yl}acetic acid] |
